From PMC10206591, “Identification of small molecules capable of enhancing viral membrane fusion” (Virology Journal, 2023)
Structures can show the parent of a compound that is named as a salt.

Tested on: SARS-CoV-2 S-mediated membrane fusion

Compound | Z-score
CC(=O)c1ccc2c(c1)N(CCCN(C)C)c1ccccc1S2.O=C(O)/C=C\C(=O)O [Acetopromazine maleate salt] | 1,71
O=C(CCCCCCC(=O)Nc1ccccc1)NO [Vorinostat] | 4,62
Meclocycline sulfosalicylate | 5,55
CCOc1ccc(Cc2nccc3cc(OCC)c(OCC)cc23)cc1OCC [Ethaverine hydrochloride] | 4,10
CN1CCCC(n2nc(Cc3ccc(Cl)cc3)c3ccccc3c2=O)CC1 (stereo not shown) [Azelastine hydrochloride] | 1,52
CC=CC(=O)N(CC)c1ccccc1C (mixture of isomers) [Crotamiton] | 2,94
CC(=O)O[C@H]1C[C@@]2(C)[C@@H](C[C@@H](O)[C@H]3[C@@]4(C)CC[C@@H](O)[C@@H](C)[C@@H]4CC[C@@]32C)/C1=C(\CCC=C(C)C)C(=O)O [Fusidic acid sodium salt] | 2,35
O=C(O)Cc1cc(I)c(Oc2ccc(O)c(I)c2)c(I)c1 [Tiratricol, 3,3',5-triiodothyroacetic acid] | 4,40
CCCSc1ccc2nc(NC(=O)OC)[nH]c2c1 [Albendazole] | 1,67
CNCCCC12CCC(c3ccccc31)c1ccccc12 [Maprotiline hydrochloride] | 2,05
CCCC1C(=O)N2C(N(C)C)=Nc3ccc(C)cc3N2C1=O (stereo not shown) [Azapropazone] | 1,91
CCCCCCNC(=O)n1cc(F)c(=O)[nH]c1=O [Carmofur] | 4,69
CC(C)c1c(C(=O)Nc2ccccc2)c(-c2ccccc2)c(-c2ccc(F)cc2)n1CC[C@@H](O)C[C@@H](O)CC(=O)O [Atorvastatin] | 1,88
CN(c1nccc(=O)[nH]1)C1CCN(c2nc3ccccc3n2Cc2ccc(F)cc2)CC1 [Mizolastine] | 2,15
CC(=O)O[C@@]12CO[C@@H]1C[C@H](O)[C@@]1(C)C(=O)[C@H](O)C3=C(C)[C@@H](OC(=O)[C@H](O)[C@@H](NC(=O)OC(C)(C)C)c4ccccc4)C[C@@](O)([C@@H](OC(=O)c4ccccc4)[C@H]21)C3(C)C [Docetaxel] | 1,72
Clc1ccc2c(c1)CCc1cccnc1C2=C1CCNCC1 [Desloratadine] | 1,59
CC(C)C[C@H]1C(=O)N2CCC[C@H]2[C@]2(O)O[C@](NC(=O)[C@@H]3C=C4c5cccc6[nH]c(Br)c(c56)C[C@H]4N(C)C3)(C(C)C)C(=O)N12.CS(=O)(=O)O [Bromocryptine mesylate] | 5,89
COc1cccc2c1C(=O)c1c(O)c3c(c(O)c1C2=O)C[C@@](O)(C(=O)CO)C[C@@H]3O[C@H]1C[C@H](N)[C@H](O)[C@H](C)O1 [Doxorubicin hydrochloride] | 4,48
O=C(O)c1cn(-c2ccc(F)cc2)c2cc(N3CCNCC3)c(F)cc2c1=O [Sarafloxacin] | 2,16
C/C(=C\C(=O)OCCCCCCCCC(=O)O)C[C@@H]1OC[C@H](C[C@@H]2O[C@H]2[C@@H](C)[C@H](C)O)[C@@H](O)[C@H]1O [Mupirocin] | 1,57
O=C([O-])c1ccccc1-c1c2cc(Br)c(=O)cc-2oc2[c]([Hg+])c([O-])c(Br)cc12.[Na+].[Na+].[OH-] [Merbromin] | 8,74
Nc1nc(O)c2[nH]nnc2n1 [Azaguanine-8] | 6,79
CN(C)[C@@H]1C(O)=C(C(N)=O)C(=O)[C@@]2(O)C(O)=C3C(=O)c4c(O)cccc4[C@@](C)(O)[C@H]3[C@H](O)[C@@H]12 [Oxytetracycline dihydrate] | 2,06
CCCCc1ccc2[nH]c(NC(=O)OC)nc2c1 [Parbendazole] | 2,56
CS(=O)(=O)c1ccc([C@@H](O)[C@@H](CO)NC(=O)C(Cl)Cl)cc1 [Thiamphenicol] | 2,42
